# Values quoted from earlier work in US5238927A (priority 1992, dated 1993).
# Settings: in vivo
smiles,measurement,value
"NC(=O)c1cc[n+](COC[n+]2ccccc2C=NO)cc1 [HI-6, 1-(2-hydroxyiminomethylpyridinium)-2-(4-carboxyamidopyridinium)-dimethyl ether dichloride]",effectiveness as antidote in the treatment of organophosphorus toxin nerve poisoning,most effective known antidote
